A word on the pIC50: it is −log10 of the IC50, conventionally taken in molar units.

For this assay, the target named is T1, Sentrin-specific protease 8 (Homo sapiens, UniProt Q96LD8).
T1 sequence (Q96LD8 whole entry): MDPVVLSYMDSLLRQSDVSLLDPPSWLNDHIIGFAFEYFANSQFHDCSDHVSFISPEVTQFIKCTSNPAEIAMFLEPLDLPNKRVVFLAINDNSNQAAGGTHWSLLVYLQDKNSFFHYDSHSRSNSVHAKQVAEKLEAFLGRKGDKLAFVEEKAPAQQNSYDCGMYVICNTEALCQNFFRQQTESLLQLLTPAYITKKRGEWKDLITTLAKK
The assay is described as follows: inhibition of sentrin protease 8 – biochemical, luminescence, set 2, SAR follow-up (AID 588601).

pIC50: −log10 of the molar value.

`CCOC1=CC(=CC(C#N)c2nc(-c3ccc(C)cc3)no2)C=C(Cl)C1=O` (stereo unspecified): the pIC50 was less than 4.00.

These data come from BindingDB's records for doi:10.7270/Q2HT2MVZ (Burnham Center For Chemical Genomics, 2011).
